{
  "source": "patent US20230391758A1",
  "about": "“MODIFIED BENZOFURAN-CARBOXAMIDES AS GLUCOSYLCERAMIDE SYNTHASE INHIBITORS” (MERCK SHARP & DOHME CORP., priority 2020, published 2023)",
  "biological_target": "GCS enzyme (glucosylceramide synthase) contained within Golgi preparations isolated from human A375 malignant melanoma skin cells (Homo sapiens (Human), UniProt Q16739)",
  "sequence (Q16739 whole entry)": "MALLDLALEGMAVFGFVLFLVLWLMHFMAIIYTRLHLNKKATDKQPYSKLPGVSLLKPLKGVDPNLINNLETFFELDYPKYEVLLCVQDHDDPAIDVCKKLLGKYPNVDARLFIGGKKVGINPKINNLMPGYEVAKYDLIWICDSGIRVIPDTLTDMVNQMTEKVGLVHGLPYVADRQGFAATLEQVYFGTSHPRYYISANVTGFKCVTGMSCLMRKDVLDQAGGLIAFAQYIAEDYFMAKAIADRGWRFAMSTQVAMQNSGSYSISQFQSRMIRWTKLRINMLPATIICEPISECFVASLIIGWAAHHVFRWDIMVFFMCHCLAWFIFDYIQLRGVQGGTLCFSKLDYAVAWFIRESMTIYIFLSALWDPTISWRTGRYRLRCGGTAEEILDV",
  "test": "UDP-Glo glucosylceramide synthase biochemical assay",
  "settings": "1.5 μg crude golgi preparation from A375 cells; C6 ceramide and UDP-glucose at 2×Km; 20 h incubation at room temperature; UDP detected by luminescence",
  "description": "UDP-Glo™ Glucosylceramide Synthase Biochemical Assay\nA UDP-Glo™ glucosylceramide synthase biochemical assay was utilized to evaluate the effect of test compounds on the activity of endogenous levels of GCS enzyme contained within Golgi preparations isolated from human A375 malignant melanoma skin cells. The UDP-Glo™ glucosylceramide synthase assay uses UDP-Glucose as a nucleotide-glycosyl donor and ceramide as substrate acceptor molecules. In the reaction, glucosylceramide synthase (GCS) transfers glucose from UDP-Glucose to ceramide. Glucosylceramide and UDP are released as products.\nUsing Promega's UDP-Glo™ Glycosyltransferase assay kit (Promega Corporation, Madison, WI, USA (Promega)), GCS activity was indirectly measured by detecting the amount of UDP produced. An aliquot of GCS enzyme (1.5 μg crude golgi preparation, total protein) and titrated test compound were aliquoted to each well and incubated for 30 minutes at room temperature. Substrate mixture was prepared by mixing C6 ceramide (Avanti Polar Lipids, Alabaster, AL USA (Avanti)) (micelles prepared at 0.6 mM in 0.6 mM DOPC) and UDP-glucose (20 μ.M; Promega), at concentrations equivalent to 2×Km, in assay buffer (25 mM HEPES (pH 7.5), 50 mM KCl, 5 mM MgCl2). An equivalent volume of substrate mixture was then added to each well. Following a 20 h incubation at room temperature to allow for GCS turnover of substrate, an equal volume of UDP detection reagent (Promega) was added to each well and incubated for an additional 75 minutes at room temperature to simultaneously convert the accumulated UDP product into ATP and generate light in a luciferase reaction. The generated light was detected using a luminometer. […] luminescence values (RLUs) were normalized to mean “min” and “max” effects, as determined on each plate. “Min” was defined as the mean of the values of the wells treated with vehicle (DMSO) and which represent 0% inhibition; “max” was defined as the mean of the values of the wells treated with a reference inhibitor and which represent the 100% effect. Values for % Emax and EC50 were determined by best-fitting the normalized data to a curve in Activity Base along a four-parameter logistic nonlinear regression (4PL) model (based on the Levenberg-Marquardt algorithm and defined by the equation below): […]\nwhere: n is 4PMin (bottom of the curve); m is 4PMax (top of the curve); i is IP (inflection point of curve); and p is slope. See Levenberg, K., “A Method for the Solution of Certain Problems in Least Squares”, Quart. Appl. Math. 2, (1944), pp 164-168 and Marquardt, D., “An Algorithm for Least Squares Estimation on Nonlinear Parameters”, SIAM J. Appl. Math. 11, (1963) pp 431-441.",
  "note": "pEC50: −log10 of the molar value.",
  "data": [
    {"compound": "O=C(NC1CNCCC1(F)F)c1nc2cccc(-c3ccccc3OCC(F)(F)F)c2o1", "note": "(racemic) [Compound 39, (R and S)-N-(4,4-difluoropiperidin-3-yl)-7-(2-(2,2,2-trifluoroethoxy)phenyl)benzo[d]oxazole-2-carboxamide]", "values": [
      {"measurement": "pEC50", "result": 7.36}
    ]},
    {"compound": "Cc1cccc(NC(=O)c2cc3cccc(-c4c(C)nn(C)c4C)c3o2)n1", "note": "[Compound 12, N-(6-methyl-2-pyridyl)-7-(1,3,5-trimethylpyrazol-4-yl)benzofuran-2-carboxamide]", "values": [
      {"measurement": "pEC50", "result": 7.68}
    ]},
    {"compound": "CC(CO)C12CC(NC(=O)c3cc4cccc(-c5ccccc5OCC(F)(F)F)c4o3)(C1)C2", "note": "(racemic) [Compound 9, (R and S)-N-[3-(2-hydroxy-1-methyl-ethyl)-1-bicyclo[1.1.1]pentanyl]-7-[2-(2,2,2-trifluoroethoxy)phenyl] benzofuran-2-carboxamide]", "values": [
      {"measurement": "pEC50", "result": 8.77}
    ]},
    {"compound": "COc1ccc(C#N)cc1-c1cc(Cl)cc2cc(C(=O)N[C@@H]3CC[C@H](O)C3)oc12", "note": "[Compound 5, 5-chloro-7-(5-cyano-2-methoxy-phenyl)-N-[(1R,3S)-3-hydroxycyclopentyl] benzofuran-2-carboxamide]", "values": [
      {"measurement": "pEC50", "result": 9.77}
    ]},
    {"compound": "CCCOc1ccccc1-c1cccc2cc(C(=O)NC3CN4CCC3CC4)oc12", "note": "(racemic) [Compound 23, (R and S)-7-(2-propoxyphenyl)-N-quinuclidin-3-yl-benzofuran-2-carboxamide]", "values": [
      {"measurement": "pEC50", "result": 10.36}
    ]},
    {"compound": "Cc1nn(C)c(C)c1-c1cccc2cc(C(=O)NC3CN4CCC3CC4)oc12", "note": "(racemic) [Compound 37, (R and S)-N-(quinuclidin-3-yl)-7-(1,3,5-trimethyl-1H-pyrazol-4-yl)benzofuran-2-carboxamide]", "values": [
      {"measurement": "pEC50", "result": 8.62}
    ]},
    {"compound": "CC(C)Oc1ccc(C#N)cc1-c1cc(F)cc2cc(C(=O)NC(C)(C)CO)oc12", "note": "[Compound 29, 7-(5-cyano-2-isopropoxy-phenyl)-5-fluoro-N-(2-hydroxy-1,1-dimethyl-ethyl)benzofuran-2-carboxamide]", "values": [
      {"measurement": "pEC50", "result": 9.09}
    ]},
    {"compound": "COc1ncc(C#N)cc1-c1cccc2cc(C(=O)NC34CCC(O)(CC3)C4)oc12", "note": "[Compound 38, 7-(5-cyano-2-methoxypyridin-3-yl)-N-(4-hydroxybicyclo[2.2.1]heptan-1-yl)benzofuran-2-carboxamide]", "values": [
      {"measurement": "pEC50", "result": 9.10}
    ]},
    {"compound": "COc1ccc(Cl)cc1-c1cc(F)cc2cc(C(=O)N[C@H]3C[C@@H](CO)C3)oc12", "note": "[Compound 28, Cis-7-(5-chloro-2-methoxy-phenyl)-5-fluoro-N-[3-(hydroxymethyl)cyclobutyl]be nzofuran-2-carboxamide]", "values": [
      {"measurement": "pEC50", "result": 9.22}
    ]},
    {"compound": "COc1cc(-c2ccccc2OCC(F)(F)F)c2oc(C(=O)NC3CCC(CO)CC3)cc2c1", "note": "(stereo not shown) [Compound 31, N-[4-(hydroxymethyl)cyclohexyl]-5-methoxy-7-[2-(2,2,2-trifluoroethoxy)phenyl] benzofuran-2-carboxamide]", "values": [
      {"measurement": "pEC50", "result": 8.39}
    ]},
    {"compound": "O=C(NC1CNCCC1(F)F)c1cc2cccc(-c3ccccc3OCC(F)(F)F)c2o1", "note": "(racemic) [Compound 14, (R and S)-N-(4,4-difluoro-3-piperidyl)-7-[2-(2,2,2-trifluoroethoxy)phenyl] benzofuran-2-carboxamide]", "values": [
      {"measurement": "pEC50", "result": 9.32}
    ]},
    {"compound": "CCCCOc1ccccc1-c1cccc2cc(C(=O)NC3CN4CCC3CC4)oc12", "note": "(racemic) [Compound 21, (R and S)-7-(2-butoxyphenyl)-N-quinuclidin-3-yl-benzofuran-2-carboxamide]", "values": [
      {"measurement": "pEC50", "result": 10.68}
    ]},
    {"compound": "O=C(NC12CCC(O)(CC1)C2)c1cc2cccc(-c3cc(Cl)cnc3OC(F)F)c2o1", "note": "[Compound 6, 7-[5-chloro-2-(difluoromethoxy)-3-pyridyl]-N-(4-hydroxynorbornan-1-yl)benzofuran-2-carboxamide]", "values": [
      {"measurement": "pEC50", "result": 9.06}
    ]},
    {"compound": "O=C(NC1CN2CCC1CC2)c1cc2cc(Cl)cc(-c3ccccc3OCCF)c2o1", "note": "(racemic) [Compound 20, (R and S)-5-chloro-7-[2-(2-fluoroethoxy)phenyl]-N-quinuclidin-3-yl-benzofuran-2-carboxamide]", "values": [
      {"measurement": "pEC50", "result": 10.70}
    ]},
    {"compound": "COc1ncc(Cl)cc1-c1cccc2cc(C(=O)NC34CCC(O)(CC3)C4)oc12", "note": "[Compound 8, 7-(5-chloro-2-methoxy-3-pyridyl)-N-(4-hydroxynorbornan-1-yl)benzofuran-2-carboxamide]", "values": [
      {"measurement": "pEC50", "result": 8.96}
    ]},
    {"compound": "CCCOc1ccccc1-c1cccc2cc(C(=O)NC3CNCCC3(F)F)oc12", "note": "(single isomer, unassigned) [Compound 36, (R or S)-N-(4,4-difluoro-3-piperidyl)-7-(2-propoxyphenyl)benzofuran-2-carboxamide]", "values": [
      {"measurement": "pEC50", "result": 8.85}
    ]},
    {"compound": "O=C(Nc1cccnc1)c1cc2cccc(-c3ccccc3OCC(F)(F)F)c2o1", "note": "[Compound 7, N-(3-pyridyl)-7-[2-(2,2,2-trifluoroethoxy)phenyl] benzofuran-2-carboxamide]", "values": [
      {"measurement": "pEC50", "result": 9.00}
    ]},
    {"compound": "COCCOc1ccccc1-c1cccc2cc(C(=O)Nc3cccnc3)oc12", "note": "[Compound 35, 7-[2-(2-methoxyethoxy)phenyl]-N-(3-pyridyl)benzofuran-2-carboxamide]", "values": [
      {"measurement": "pEC50", "result": 7.03}
    ]},
    {"compound": "N#Cc1ccc(OC(F)F)c(-c2cccc3cc(C(=O)NC45CCC(O)(CC4)C5)oc23)c1", "note": "[Compound 4, 7-[5-cyano-2-(difluoromethoxy)phenyl]-N-(4-hydroxynorbornan-1-yl)benzofuran-2-carboxamide]", "values": [
      {"measurement": "pEC50", "result": 10.00}
    ]},
    {"compound": "C[C@]1(NC(=O)c2cc3cc(F)cc(-c4ccccc4OCC(F)(F)F)c3o2)CC[C@H](O)CC1", "note": "[Compound 27, Cis or trans-5-fluoro-N-(4-hydroxy-1-methyl-cyclohexyl)-7-[2-(2,2,2-trifluoroethoxy)phenyl] benzofuran-2-carboxamide]", "values": [
      {"measurement": "pEC50", "result": 9.62}
    ]},
    {"compound": "CCCCOc1ccccc1-c1cccc2cc(C(=O)NC(C)(C)CO)oc12", "note": "[Compound 13, 7-(2-butoxyphenyl)-N-(2-hydroxy-1,1-dimethyl-ethyl)benzofuran-2-carboxamide]", "values": [
      {"measurement": "pEC50", "result": 7.55}
    ]},
    {"compound": "COc1ccc(C#N)cc1-c1cccc2cc(C(=O)N[C@@H]3CC[C@H](O)C3)oc12", "note": "[Compound 19, 7-(5-cyano-2-methoxyphenyl)-N-((1R,3S)-3-hydroxycyclopentyl)benzofuran-2-carboxamide]", "values": [
      {"measurement": "pEC50", "result": 9.59}
    ]},
    {"compound": "N#Cc1ccc(F)c(-c2cccc3cc(C(=O)N[C@@H]4CC[C@H](O)C4)oc23)c1", "note": "[Compound 32, 7-(5-cyano-2-fluoro-phenyl)-N-[(1R,3S)-3-hydroxycyclopentyl] benzofuran-2-carboxamide]", "values": [
      {"measurement": "pEC50", "result": 8.30}
    ]},
    {"compound": "N#Cc1ccc(Cl)c(-c2cccc3cc(C(=O)N[C@@H]4CC[C@H](O)C4)oc23)c1", "note": "[Compound 25, 7-(2-chloro-5-cyano-phenyl)-N-[(1R,3S)-3-hydroxycyclopentyl] benzofuran-2-carboxamide]", "values": [
      {"measurement": "pEC50", "result": 10.33}
    ]},
    {"compound": "CC(C)Oc1ccc(C#N)cc1-c1cc(F)cc2cc(C(=O)N[C@H]3C[C@@H](O)C3)oc12", "note": "[Compound 26, Cis-7-(5-cyano-2-isopropoxy-phenyl)-5-fluoro-N-(3-hydroxycyclobutyl) benzofuran-2-carboxamide]", "values": [
      {"measurement": "pEC50", "result": 10.00}
    ]},
    {"compound": "CCOc1ccc(F)cc1-c1cccc2cc(C(=O)N[C@@H]3CC[C@H](O)C3)oc12", "note": "[Compound 33, 7-(2-ethoxy-5-fluoro-phenyl)-N-[(1R,3S)-3-hydroxycyclopentyl] benzofuran-2-carboxamide]", "values": [
      {"measurement": "pEC50", "result": 8.19}
    ]},
    {"compound": "O=C(NC12CCC(CO)(CC1)CC2)c1cc2cc(F)cc(-c3ccccc3OCC(F)(F)F)c2o1", "note": "[Compound 17, 5-fluoro-N-[4-(hydroxymethyl)-1-bicyclo[2.2.2]octanyl]-7-[2-(2,2,2-trifluoroethoxy)phenyl] benzofuran-2-carboxamide]", "values": [
      {"measurement": "pEC50", "result": 9.05}
    ]},
    {"compound": "COc1ccc(F)c(F)c1-c1cccc2cc(C(=O)N[C@@H]3CC[C@H](O)C3)oc12", "note": "[Compound 30, 7-(2,3-difluoro-6-methoxy-phenyl)-N-[(1R,3S)-3-hydroxycyclopentyl] benzofuran-2-carboxamide]", "values": [
      {"measurement": "pEC50", "result": 8.47}
    ]},
    {"compound": "COc1ccc(C#N)cc1-c1cccc2cc(C(=O)NC34CCC(O)(CC3)C4)oc12", "note": "[Compound 3, 7-(5-cyano-2-methoxy-phenyl)-N-(4-hydroxynorbornan-1-yl)benzofuran-2-carboxamide]", "values": [
      {"measurement": "pEC50", "result": 10.01}
    ]},
    {"compound": "Cc1nn(C)c(C)c1-c1cccc2cc(C(=O)Nc3ccc4cnccc4n3)oc12", "note": "[Compound 2, N-(1,6-naphthyridin-2-yl)-7-(1,3,5-trimethylpyrazol-4-yl)benzofuran-2-carboxamide]", "values": [
      {"measurement": "pEC50", "result": 10.19}
    ]},
    {"compound": "CC(C)Oc1ccc(C#N)cc1-c1cc(Cl)cc2cc(C(=O)N[C@H]3C[C@@H](O)C3)oc12", "note": "[Compound 24, Cis-5-chloro-7-(5-cyano-2-isopropoxy-phenyl)-N-(3-hydroxycyclobutyl) benzofuran-2-carboxamide]", "values": [
      {"measurement": "pEC50", "result": 10.36}
    ]}
  ]
}
